Data as given in patent US8383581B2, “Short-chain peptides as parathyroid hormone (PTH) receptor agonist” (Cadila Healthcare Limited, priority 2009, dated 2013).
Where a SMILES comes first, the peptide text is derived from it. [ ]: non-standard residue; d: D form. ξ: configuration not given here. ξαMeBip(2'-Et,4'-OMe) = CCc1cc(OC)ccc1-c1ccc(CC(C)(N)C(=O)O)cc1; ξBip(2'-Et-4'-OMe) = CCc1cc(OC)ccc1-c1ccc(CC(N)C(=O)O)cc1; αMePhe(2,6-F2) = C[C@](N)(Cc1c(F)cccc1F)C(=O)O; ξαMePhe(2,6-F2) = CC(N)(Cc1c(F)cccc1F)C(=O)O; αMePhe(2-F) = C[C@](N)(Cc1ccccc1F)C(=O)O; ξαMe(hhPhe) = CC(N)(CCCc1ccccc1)C(=O)O; ξαMePhe(2-F) = CC(N)(Cc1ccccc1F)C(=O)O; hhPhe = N[C@@H](CCCc1ccccc1)C(=O)O; hArg = N=C(N)NCCCC[C@H](N)C(=O)O; Cit = NC(=O)NCCC[C@H](N)C(=O)O; ξαMeF = CC(N)(Cc1ccccc1)C(=O)O; ξαMeV = CC(C)C(C)(N)C(=O)O; ξαMeM = CSCCC(C)(N)C(=O)O; Nle = CCCC[C@H](N)C(=O)O; Orn = NCCC[C@H](N)C(=O)O; ξαMeP = CC1(C(=O)O)CCCN1; Ac5c = NC1(C(=O)O)CCCC1; Ac3c = NC1(C(=O)O)CC1; Aib = CC(C)(N)C(=O)O

What was measured:
Format in all cases: in vitro ADME
[1] = Stability of peptides in simulated gastric fluid (pH 1.5; HCl, NaCl and Pepsin); details: pH 1.5; for % degradation of peptides in 24 h when incubated with simulated gastric fluid: 2 μM; for half-life / half-life (t1/2) in simulated gastric fluid: simulated gi fluid
[2] = Stability of peptides in simulated intestinal fluid (pH 7.5); details: pH 7.5; for half-life / half-life (t1/2) in simulated intestinal fluid: simulated gi fluid; for % degradation of peptides in 24 h when incubated with simulated intestinal fluid: 2 μM
How it was run: (§1)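 Peptides at 2 μM final incubated 0–24 h at 37 °C (50 mM triethanolamine-HCl, pH 7.8) in each matrix, matrix level set to degrade ~50% PTH(1-34) in 1 h; TFA-quenched, C18 HPLC at 206 nm with ESI-MS peak identification; percent degradation from peak areas at each time point.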

[3] = Stability of peptides in human plasma; details: human, plasma; for metabolised at 24 h, 2 μM: pH 7.8
How it was run: as §1

[4] = Stability of peptides in human liver microsomes; details: human, microsomes; for % degradation of peptides in 24 h when incubated with liver microsomes: 2 μM, pH 7.8
How it was run: as §1

Row | % degradation of peptides in 24 h when incubated with simulated gastric fluid [1] | half-life [1] | half-life [2] | % degradation of peptides in 24 h when incubated with simulated intestinal fluid [2] | half-life (t1/2) in human plasma [3] | metabolised at 24 h, 2 μM [3] | half-life [4] | % degradation of peptides in 24 h when incubated with liver microsomes [4] | half-life (t1/2) in simulated gastric fluid [1] | half-life (t1/2) in simulated intestinal fluid [2] | half-life [3] | SMILES
1 | 100% | 30 min | 30 min | 100% | (9) h | 75% | 30 min | 100% | – | – | – | CCCC[C@H](NC(=O)C(C)(Cc1ccccc1F)NC(=O)[C@H](CCC(N)=O)NC(=O)[C@@H](NC(=O)[C@H](CCC(=O)O)NC(=O)C(C)(C)NC(=O)[C@@H](NC(=O)C(C)(C)N)C(C)C)[C@@H](C)CC)C(=O)N[C@@H](Cc1c[nH]cn1)C(=O)N[C@@H](CCC(N)=O)C(=O)N[C@@H](CCCN)C(=O)NC(C)(C)C(=O)N[C@@H](CCCNC(N)=O)C(=O)NC(C)(Cc1c(F)cccc1F)C(N)=O (stereo partly shown) [Seq. ID. 290] (H-[Aib]V[Aib]EIQ[ξαMePhe(2-F)][Nle]HQ[Orn][Aib][Cit][ξαMePhe(2,6-F2)]-NH2)
2 | 14% | – | – | 40% | – | 71% | 60 min | 78% | (8) h | (6) h | 480 min | CCCC[C@H](NC(=O)[C@H](CC(C)C)NC(=O)[C@H](CCC(N)=O)NC(=O)[C@@H](NC(=O)[C@H](CCC(=O)O)NC(=O)C1(NC(=O)[C@@H](NC(=O)C2(N)CC2)C(C)C)CC1)[C@@H](C)CC)C(=O)N[C@@H](Cc1c[nH]cn1)C(=O)N[C@@H](CCC(N)=O)C(=O)N[C@@H](CCCCNC(=N)N)C(=O)N[C@@H](C)C(=O)N[C@@H](CCCCN)C(=O)NC(Cc1ccc(-c2ccc(OC)cc2CC)cc1)C(=O)N[C@@H](CCCc1ccccc1)C(N)=O (stereo partly shown) [Seq. ID. 610] (H-[Ac3c]V[Ac3c]EIQL[Nle]HQ[hArg]AK[ξBip(2'-Et-4'-OMe)][hhPhe]-NH2)
3 | 100% | 30 min | 30 min | 100% | (9) h | 77% | 30 min | 100% | – | – | – | CCCC[C@H](NC(=O)[C@](C)(Cc1c(F)cccc1F)NC(=O)[C@H](CCC(N)=O)NC(=O)[C@@H](NC(=O)[C@H](CCC(=O)O)NC(=O)C(C)(C)NC(=O)[C@@H](NC(=O)C1(N)CCCC1)C(C)C)[C@@H](C)CC)C(=O)N[C@@H](Cc1c[nH]cn1)C(=O)N[C@@H](CCC(N)=O)C(=O)N[C@@H](CCCCNC(=N)N)C(=O)NC(C)(C)C(=O)N[C@@H](CCCCN)C(=O)N[C@@](C)(Cc1ccccc1F)C(N)=O [Seq. ID. 85] (H-[Ac5c]V[Aib]EIQ[αMePhe(2,6-F2)][Nle]HQ[hArg][Aib]K[αMePhe(2-F)]-NH2)
4 | 100% | 30 min | 30 min | 100% | (9) h | 78% | 30 min | 100% | – | – | – | CCCC[C@H](NC(=O)C(C)(Cc1c(F)cccc1F)NC(=O)[C@H](CCC(N)=O)NC(=O)[C@@H](NC(=O)[C@H](CCC(=O)O)NC(=O)C(C)(C)NC(=O)[C@@H](NC(=O)C1(N)CC1)C(C)C)[C@@H](C)CC)C(=O)N[C@@H](Cc1c[nH]cn1)C(=O)N[C@@H](CCC(N)=O)C(=O)N[C@@H](CCCCNC(=N)N)C(=O)N1CCCC1(C)C(=O)N[C@@H](CCCCN)C(=O)NC(C)(Cc1ccccc1F)C(N)=O (stereo partly shown) [Seq. ID. 75] (H-[Ac3c]V[Aib]EIQ[ξαMePhe(2,6-F2)][Nle]HQ[hArg][ξαMeP]K[ξαMePhe(2-F)]-NH2)
5 | 52% | 240 min | > 1440 min | 00% | – | 0% | 120 min | 81% | – | – | > 1440 min | CCCC[C@H](NC(=O)C(C)(Cc1c(F)cccc1F)NC(=O)[C@H](CCC(N)=O)NC(=O)[C@@H](NC(=O)[C@H](CCC(=O)O)NC(=O)C(C)(C)NC(=O)[C@@H](NC(=O)C1(N)CCCC1)C(C)C)[C@@H](C)CC)C(=O)N[C@@H](Cc1c[nH]cn1)C(=O)N[C@@H](CCC(N)=O)C(=O)N[C@@H](CCCCNC(=N)N)C(=O)N[C@@H](C)C(=O)N[C@@H](CCCNC(=N)N)C(=O)NC(Cc1ccc(-c2ccc(OC)cc2CC)cc1)C(=O)N[C@@H](CCCc1ccccc1)C(N)=O (stereo partly shown) [Seq. ID. 811] (H-[Ac5c]V[Aib]EIQ[ξαMePhe(2,6-F2)][Nle]HQ[hArg]AR[ξBip(2'-Et-4'-OMe)][hhPhe]-NH2)
6 | 100% | 30 min | 30 min | 100% | (9) h | 77% | 30 min | 100% | – | – | – | CCc1cc(OC)ccc1-c1ccc(CC(C)(NC(=O)[C@H](CCCCNC(=N)N)NC(=O)[C@H](C)NC(=O)[C@H](CCCCNC(=N)N)NC(=O)[C@H](CCC(N)=O)NC(=O)[C@H](Cc2c[nH]cn2)NC(=O)C(C)(CCSC)NC(=O)[C@H](CC(C)C)NC(=O)[C@H](CCC(N)=O)NC(=O)[C@@H](NC(=O)[C@H](CCC(=O)O)NC(=O)C(C)(C)NC(=O)[C@@H](NC(=O)C(C)(C)N)C(C)C)[C@@H](C)CC)C(=O)N[C@@H](CCCc2ccccc2)C(N)=O)cc1 (stereo partly shown) [Seq. ID. 910] (H-[Aib]V[Aib]EIQL[ξαMeM]HQ[hArg]A[hArg][ξαMeBip(2'-Et,4'-OMe)][hhPhe]-NH2)
7 | 12% | – | – | 46% | – | 75% | 60 min | 83% | (8) h | (6) h | 480 min | CCCC[C@H](NC(=O)C(C)(Cc1ccccc1F)NC(=O)[C@H](CCC(N)=O)NC(=O)[C@@H](NC(=O)[C@H](CCC(=O)O)NC(=O)C(C)(C)NC(=O)[C@@H](NC(=O)C(C)(C)N)C(C)C)[C@@H](C)CC)C(=O)N[C@@H](Cc1c[nH]cn1)C(=O)N[C@@H](CCC(N)=O)C(=O)N[C@@H](CCCCNC(=N)N)C(=O)N1CCCC1(C)C(=O)N[C@@H](CCCCN)C(=O)NC(C)(Cc1ccccc1)C(N)=O (stereo partly shown) [Seq. ID. 25] (H-[Aib]V[Aib]EIQ[ξαMePhe(2-F)][Nle]HQ[hArg][ξαMeP]K[ξαMeF]-NH2)
8 | 100% | 30 min | 30 min | 100% | (9) h | 78% | 30 min | 100% | – | – | – | CCc1cc(OC)ccc1-c1ccc(CC(NC(=O)[C@H](CCCCNC(=N)N)NC(=O)[C@H](C)NC(=O)[C@H](CCCCNC(=N)N)NC(=O)[C@H](CCC(N)=O)NC(=O)[C@H](Cc2c[nH]cn2)NC(=O)[C@H](CCSC)NC(=O)[C@H](CC(C)C)NC(=O)[C@H](CCC(N)=O)NC(=O)[C@@H](NC(=O)[C@H](CCC(=O)O)NC(=O)C(C)(C)NC(=O)[C@@H](NC(=O)C2(NC(=O)C(C)(N)C(C)C)CCCC2)C(C)C)[C@@H](C)CC)C(=O)NC(C)(CCCc2ccccc2)C(N)=O)cc1 (stereo partly shown) [Seq. ID. 906] (H-[ξαMeV][Ac5c]V[Aib]EIQLMHQ[hArg]A[hArg][ξBip(2'-Et-4'-OMe)][ξαMe(hhPhe)]-NH2)
